According to the NIST ThermoML archive (doi:10.1021/je200707b):
Numbers after ± are expanded uncertainties.

How the values were obtained:
[1] = refractive index (Na D-line) (dimensionless); conditions: 298.15 K; 101.33 kPa; Liquid; Standard Abbe refractometry
[2] = 101.33 kPa, Liquid; for viscosity: Falling or rolling sphere viscometry; for mass density: Vibrating tube method

Row | SMILES | refractive index [1] | viscosity ([2]; 293.15 K) | mass density ([2]; 293.15 K) | viscosity ([2]; 298.15 K) | mass density ([2]; 298.15 K) | viscosity ([2]; 303.15 K) | mass density ([2]; 303.15 K) | viscosity ([2]; 308.15 K) | mass density ([2]; 308.15 K) | viscosity ([2]; 313.15 K) | mass density ([2]; 313.15 K)
1 | CCCCO [butan-1-ol] | 1.3973 ± 0.0011 | 2.983 ± 0.082 mPa·s | 809.7 ± 0.38 kg/m3 | 2.617 ± 0.072 mPa·s | 805.9 ± 0.38 kg/m3 | 2.306 ± 0.063 mPa·s | 802.05 ± 0.37 kg/m3 | 2.04 ± 0.056 mPa·s | 798.17 ± 0.37 kg/m3 | 1.811 ± 0.05 mPa·s | 794.26 ± 0.37 kg/m3
2 | CO [methanol] | 1.3265 ± 0.0011 | 0.588 ± 0.016 mPa·s | 791.28 ± 0.37 kg/m3 | 0.557 ± 0.015 mPa·s | 786.56 ± 0.37 kg/m3 | 0.519 ± 0.014 mPa·s | 781.83 ± 0.37 kg/m3 | 0.49 ± 0.013 mPa·s | 777.07 ± 0.37 kg/m3 | 0.462 ± 0.013 mPa·s | 772.29 ± 0.37 kg/m3
3 | CCO [ethanol] | 1.3594 ± 0.0011 | 1.241 ± 0.034 mPa·s | 789.54 ± 0.37 kg/m3 | 1.128 ± 0.031 mPa·s | 785.25 ± 0.37 kg/m3 | 1.029 ± 0.028 mPa·s | 780.93 ± 0.37 kg/m3 | 0.92 ± 0.025 mPa·s | 776.57 ± 0.37 kg/m3 | 0.842 ± 0.023 mPa·s | 772.18 ± 0.37 kg/m3

Second part, the compound after the results:

Row | refractive index [1] | viscosity ([2]; 293.15 K) | mass density ([2]; 293.15 K) | viscosity ([2]; 298.15 K) | mass density ([2]; 298.15 K) | viscosity ([2]; 303.15 K) | mass density ([2]; 303.15 K) | viscosity ([2]; 308.15 K) | mass density ([2]; 308.15 K) | viscosity ([2]; 313.15 K) | mass density ([2]; 313.15 K) | SMILES
4 | 1.3834 ± 0.0011 | 2.229 ± 0.061 mPa·s | 803.55 ± 0.37 kg/m3 | 1.975 ± 0.054 mPa·s | 799.55 ± 0.37 kg/m3 | 1.757 ± 0.048 mPa·s | 795.52 ± 0.37 kg/m3 | 1.568 ± 0.043 mPa·s | 791.44 ± 0.37 kg/m3 | 1.406 ± 0.039 mPa·s | 787.34 ± 0.37 kg/m3 | CCCO [propan-1-ol]
5 | 1.4426 ± 0.0011 | 771.69 ± 71 mPa·s | 959.61 ± 0.42 kg/m3 | 546.35 ± 44 mPa·s | 956.44 ± 0.42 kg/m3 | 397.17 ± 28 mPa·s | 953.33 ± 0.42 kg/m3 | 294.59 ± 18 mPa·s | 950.15 ± 0.42 kg/m3 | 222.24 ± 12 mPa·s | 946.98 ± 0.42 kg/m3 | CC(=O)O.CCCCN [butylammonium acetate]
